Results published in ChEMBL document CHEMBL1122468, “Synthesis of (7R)-7H-indolo[3,4-gh][1,4]benzoxazines, a new class of D-heteroergolines with dopamine agonist activity” (J Med Chem, 1983).

Columns and labels:
[1] = target: T1, Cerebral cortex alpha adrenergic receptor (Bos taurus, UniProt Q28838+P18130); assay: In vitro affinity for alpha adrenergic receptor by displacement of 3[H]clonidine in calf cerebral cortex; format: tissue-based
T1 sequence (Q28838 whole entry): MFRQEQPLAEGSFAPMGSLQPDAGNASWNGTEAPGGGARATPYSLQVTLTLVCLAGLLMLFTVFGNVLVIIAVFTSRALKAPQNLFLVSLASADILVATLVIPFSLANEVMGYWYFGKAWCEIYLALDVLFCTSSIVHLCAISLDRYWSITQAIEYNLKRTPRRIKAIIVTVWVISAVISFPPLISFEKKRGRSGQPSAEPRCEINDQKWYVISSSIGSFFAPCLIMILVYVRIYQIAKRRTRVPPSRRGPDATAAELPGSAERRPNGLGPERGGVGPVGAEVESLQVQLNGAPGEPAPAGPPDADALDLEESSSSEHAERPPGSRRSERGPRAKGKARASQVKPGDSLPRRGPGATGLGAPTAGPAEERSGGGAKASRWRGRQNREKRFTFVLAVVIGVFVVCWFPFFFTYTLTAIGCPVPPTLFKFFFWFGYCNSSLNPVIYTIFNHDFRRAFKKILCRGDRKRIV
T1 sequence (P18130 whole entry): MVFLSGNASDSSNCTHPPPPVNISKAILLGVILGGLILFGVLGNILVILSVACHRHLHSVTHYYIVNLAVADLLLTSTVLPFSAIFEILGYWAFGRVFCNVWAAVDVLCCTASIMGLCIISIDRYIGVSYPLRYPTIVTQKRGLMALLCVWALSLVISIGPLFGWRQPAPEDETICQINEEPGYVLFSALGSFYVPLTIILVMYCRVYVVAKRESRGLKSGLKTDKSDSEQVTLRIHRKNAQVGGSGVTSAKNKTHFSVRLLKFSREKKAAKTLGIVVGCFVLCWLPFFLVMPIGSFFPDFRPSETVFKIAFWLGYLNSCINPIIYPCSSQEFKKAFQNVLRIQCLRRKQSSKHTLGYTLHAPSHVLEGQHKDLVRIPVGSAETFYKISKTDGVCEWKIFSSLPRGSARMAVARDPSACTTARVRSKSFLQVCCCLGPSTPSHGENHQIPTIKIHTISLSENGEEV

[2] = target: Dopamine receptor; assay: In vitro affinity for dopamine receptor by displacement of [3H]- apomorphine in rat striatal membranes; format: cell membranes, Membrane
[3] = system: Rattus norvegicus; assay: In vivo measure of dopaminergic activity by the induction of contralateral turning behavior in 6-hydroxydopamine (6-OHDA) lesioned rats, ip; format: functional
[4] = Rattus norvegicus, ip, read-out: ED50

In the case of CCCN1CCO[C@@H]2c3cccc4[nH]cc(c34)C[C@H]21, the IC50 [1] is reported as 31 nM, the IC50 [2] is reported as 2.2 nM and the ED50 [3, 4] is reported as 0.028 mg/kg.
For CN1CCO[C@@H]2c3cccc4[nH]cc(c34)C[C@H]21, the IC50 [1] was 27 nM, the IC50 [2] was 28.9 nM and the ED50 [3, 4] was 0.18 mg/kg.
In the case of CCN1CCO[C@@H]2c3cccc4[nH]cc(c34)C[C@H]21 (relative stereo), the IC50 [1] is reported as 1354 nM, the IC50 [2] is reported as 1240 nM and the ED50 [3] is reported as greater than 5 mg/kg.
In the case of C=CCN1CCO[C@@H]2c3cccc4[nH]cc(c34)C[C@H]21, the IC50 [1] is reported as 206 nM, the IC50 [2] is reported as 23 nM and the ED50 [3, 4] is reported as 0.15 mg/kg.
With c1cc2c3c(c[nH]c3c1)C[C@H]1NCCO[C@H]21 the IC50 [1] was 55 nM, the IC50 [2] was 59.6 nM and the ED50 [3, 4] was 0.76 mg/kg.
CCN1CCO[C@@H]2c3cccc4[nH]cc(c34)C[C@H]21 (stereo in doubt; 6b) showed an IC50 [1] of 15 nM, an IC50 [2] of 4.65 nM and an ED50 [3] of 0.09 mg/kg.
Work on CCCCN1CCO[C@@H]2c3cccc4[nH]cc(c34)C[C@H]21 yielded an IC50 [1] of 46 nM, an IC50 [2] of 33 nM and an ED50 [3, 4] of 1.1 mg/kg.
CCCN1C[C@H](CSC)C[C@@H]2c3cccc4[nH]cc(c34)C[C@H]21 [PERGOLIDE] gave an ED50 [3, 4] of 0.1 mg/kg.
Work on CCN1CCO[C@@H]2c3cccc4[nH]cc(c34)C[C@H]21 (stereo in doubt; (-)6b) yielded an IC50 [1] of 7 nM, an IC50 [2] of 2 nM and an ED50 [3] of 0.027 mg/kg.
Work on CCN1CCO[C@@H]2c3cccc4[nH]cc(c34)C[C@H]21 (stereo in doubt; (+)6b) yielded an IC50 [1] of 34 nM, an IC50 [2] of 219 nM and an ED50 [3] of 7.5 mg/kg.
With CC(C)C[C@H]1C(=O)N2CCC[C@H]2[C@]2(O)O[C@](NC(=O)[C@@H]3C=C4c5cccc6[nH]c(Br)c(c56)C[C@H]4N(C)C3)(C(C)C)C(=O)N12 [BROMOCRIPTINE] the ED50 [3, 4] was 2.8 mg/kg.
